{"source": "patent US20240287614A1", "about": "“RECIPROCAL MICRORNA-MRNA PAIRINGS AS BIOMARKERS AND THERAPEUTIC TARGETS IN CANCER” (UNIVERSITY OF MARYLAND, EASTERN SHORE, priority 2023, published 2024)", "key": {"[1]": {"tested_on": "cancer cell lines (HT-29, SW620, MDA MB 231, MCF-7, A549, and H1299)", "experiment": "TUNEL assay", "assay_type": "cell-based, human", "conditions": "mimic vs NS transfected cancer cells; 48 h", "procedure": "TUNEL assay was carried out according to the manufacturer's protocol (Click-iT™ Plus In-situ Apoptosis Detection with Alexa Fluor Dyes, Thermo Fisher Scientific). Precisely, 4×10^4 cells (HT-29, SW620, MDA MB 231, MCF-7, A549, and H1299) were seeded on coverslips and allowed to adhere for 24 h in 5% CO2 incubator at 37° C. These cells were fixed in 4% paraformaldehyde in 1×PBS after exposure of miR-99b-5p mimic or negative control mimic for 48 h, then washed with PBS three times followed by the incubation with 0.25% Triton X-100 in 1×PBS and ultimately the cells were incubated with differential steps of TUNEL reaction mixture as per the manufacturer's protocol. Lastly, the processed cells were counterstained with DAPI for 5 min, at room temperature in the dark. All labeled and/or prepared cells were mounted on glass slides and were visualized by Olympus BX3 fluorescence microscope (Olympus). Cell images were captured from 3-4 random areas at 10× magnification by using CellSens V1.18 software (Olympus)."}, "[2]": {"tested_on": "MTOR", "experiment": "RT-qPCR of MTOR expression after miRNA mimic transfection", "assay_type": "cell-based, human", "conditions": "African American and European American prostate cancer cells; vs nonsense/scrambled (NS) miRNA control", "procedure": "[…] RC77 T/E, a primary prostate cancer cell line derived from a patient, was kindly provided by Dr. Johng Rhim at Center for Prostate Disease Research (CPDR) in Rockville, MD. LNCaP and PC-3 were served as prostate cancer cell line models, and RC77 T/E and MDA PCa 2b were served as prostate cancer cell models in the study. The cells were cultured in specific cell culture media, LNCaP was cultured in RPMI with 10% fetal bovine serum (FBS), PC-3 was cultured in DMEM with 10% FBS, MDA PCa 2b were cultured in BRFF-HPC1 with 20% FBS and RC77 T/E was cultured in Keratinocyte SFM with Human Recombinant Epidermal Growth Factor (EGF 1-53) and Bovine Pituitary Extract (BPE). Cells were maintained at 37° C. in a 5% CO2 incubator. LNCaP, PC-3 and MDA PCa 2b cells were seeded at density 3×10^4 cells/well in 6-well plates. RC77 T/E cells were seeded at density 5×10^4 cells/well in 6-well plates. […]\nFor the measurement of gene expression level, total RNA was isolated using miRNeasy Mini Kit (50) (Qiagen) from the prostate cancer cells used in the study. Quantification of total RNA samples were done using NanoVue Plus spectrophotometer (GE Healthcare). […] Reverse transcription was performed using iScript Reverse Transcription Supermix kit (Bio-Rad) to generate cDNA then followed by performing quantitative PCR (qPCR) assays using SsoAdvanced Universal SYBR Green supermix kit (Bio-Rad). […]"}}}
{"substance": "miR-99b-5p mimic: miRNA mimic of miR-99b-5p (SEQ ID NO: 2, CACCCGUAGAACCGACCUUGCG), purchased from Ambion (listed as RNA, chemistry not given here; listed as Homo sapiens)", "values": [{"measurement": "DNA breakages (TUNEL red fluorescent signals in nuclei)", "setting": "[1]", "value": "enhanced"}, {"measurement": "MTOR expression (RT-qPCR)", "setting": "[2]", "value": "decreased"}]}
